Consider 20 compounds from patent publication US20250177359A1, “COMPOUNDS FOR USE IN THE TREATMENT OF CANCER AND INFLAMMATORY CONDITIONS” (priority 2022, published 2025).

One assay has as its target T1, PARP2 (Homo sapiens, UniProt Q9UGN5).
T1 construct: made in house
The assay is described as follows: biochemical. The format is biochemical. On the procedure:
(§1) All starting materials, reagents, and solvents were purchased from common commercial suppliers and were used as such without further purification. […] Organic solutions were dried over anhydrous Na2SO4 and concentrated with rotary evaporator at low pressure. All the reactions were routinely checked by thin-layer chromatography (TLC) on silica gel 60F254 (Merck) and visualized by using UV and iodine. Flash chromatography separations were carried out on Merck silica gel 60 (mesh 230-400) or by using automated Buchi Reveleris X2-UV with column FP Ecoflex Si 12 g. Yields were of purified products and were not optimized. ^1HNMR spectra were recorded at 400 MHz (Bruker Avance DRX-400), while ^13CNMR spectra were recorded at 101 MHz (Bruker Avance DRX-400). Chemical shifts are given in ppm (δ) relative to TMS. […] Mating constant (J) are reported in Hz. The purity of the tested compounds was evaluated by HPLC analysis using Jasco LC-4000 instrument equipped with a UV-Visible Diode Array Jasco-MD4015 (Jasco Corporation, Tokyo, Japan), and XTerra MS C18 column, 5 μm×4.6 mm×150 mm (Waters Corporation, Massachusetts, USA). Chromatograms were analyzed by ChromNAV2.0 Chromatography Data System software. […] The peak retention time (ret. time) is given in minutes. […] 1-Isobutoxy-4-methoxy-2-nitrobenzene (113). Isobutyl alcohol (0.6 mL, 6.43 mmol) was added, under nitrogen atmosphere at 0° C., to a suspension of NaH (0.26 g, 6.43 mmol) in dry DMF. After 15 minutes, 1-fluoro-4-methoxy-2-nitrobenzene 112 (1 g, 5.84 mmol) was also added and the reaction mixture was stirred at 80° C. for 4 h. […] (2-Isobutoxy-5-methoxyphenyl)amine (114). Zn (1.57 g, 24 mmol) and NH4C1 (2.45 g, 40 mmol) were added to a solution of 113 (0.46 g, 2 mmol) in acetone/H2O (50 mL, ratio 5:1). The reaction mixture was stirred at 60° C. for 3 h and, then, it was filtered over celite. […] N-(2,5-diethoxyphenyl)thiourea (55). […] N-(2-isobutoxy-5-methoxyphenyl)thiourea (115). […] A solution of Br2 (0.2 mL, 3.3 mmol) in CHCl3 (5 mL) was slowly added to a suspension of 45 (0.6 g, 3.3 mmol) in CHCl3 (13 mL), at 0° C. The reaction mixture was stirred at r.t. for 4 h and, then, a 10% solution of Na2SO3 in water was added to the mixture. […] 4,7-Diethoxy-1,3-benzothiazol-2-amine (66). […] 4-Isobutoxy-7-methoxy-1,3-benzothiazol-2-amine (116). […] Hydrazine hydrate (0.23 mL, 4.77 mmol) and CH3COOH (0.12 mL, 2.1 mmol) were added to a suspension of 56 (0.29 g, 1.59 mmol) in ethylene glycol (8 mL), and the reaction mixture was stirred for 24 h at 125° C. […] 6-Ethyl-2-hydrazino-1,3-benzothiazole (69). […] 6-Ispropyl-2-hydrazino-1,3-benzothiazole (70). […] 2-Hydrazino-4,7-dimethoxy-1,3-benzothiazole (73). […] 2-Hydrazino-5,7-dimethoxy-1,3-benzothiazole (75). […] 2-Hydrazino-4,7-Diethoxy-1,3-benzothiazole (77). […] 2-Hydrazino-5-methyl[1,3]thiazolo[5,4-b]pyridine (100). […] A solution of 67 (0.13 g, 0.65 mmol) in formic acid (5 mL) was refluxed for 10 h. The reaction mixture was then poured into ice/water and the pH was neutralized using a saturated solution of NaHCO3.

The next assay deals with T2, TNKS2 (Homo sapiens, UniProt Q9H2K2).
T2 sequence (Q9H2K2 1-1166): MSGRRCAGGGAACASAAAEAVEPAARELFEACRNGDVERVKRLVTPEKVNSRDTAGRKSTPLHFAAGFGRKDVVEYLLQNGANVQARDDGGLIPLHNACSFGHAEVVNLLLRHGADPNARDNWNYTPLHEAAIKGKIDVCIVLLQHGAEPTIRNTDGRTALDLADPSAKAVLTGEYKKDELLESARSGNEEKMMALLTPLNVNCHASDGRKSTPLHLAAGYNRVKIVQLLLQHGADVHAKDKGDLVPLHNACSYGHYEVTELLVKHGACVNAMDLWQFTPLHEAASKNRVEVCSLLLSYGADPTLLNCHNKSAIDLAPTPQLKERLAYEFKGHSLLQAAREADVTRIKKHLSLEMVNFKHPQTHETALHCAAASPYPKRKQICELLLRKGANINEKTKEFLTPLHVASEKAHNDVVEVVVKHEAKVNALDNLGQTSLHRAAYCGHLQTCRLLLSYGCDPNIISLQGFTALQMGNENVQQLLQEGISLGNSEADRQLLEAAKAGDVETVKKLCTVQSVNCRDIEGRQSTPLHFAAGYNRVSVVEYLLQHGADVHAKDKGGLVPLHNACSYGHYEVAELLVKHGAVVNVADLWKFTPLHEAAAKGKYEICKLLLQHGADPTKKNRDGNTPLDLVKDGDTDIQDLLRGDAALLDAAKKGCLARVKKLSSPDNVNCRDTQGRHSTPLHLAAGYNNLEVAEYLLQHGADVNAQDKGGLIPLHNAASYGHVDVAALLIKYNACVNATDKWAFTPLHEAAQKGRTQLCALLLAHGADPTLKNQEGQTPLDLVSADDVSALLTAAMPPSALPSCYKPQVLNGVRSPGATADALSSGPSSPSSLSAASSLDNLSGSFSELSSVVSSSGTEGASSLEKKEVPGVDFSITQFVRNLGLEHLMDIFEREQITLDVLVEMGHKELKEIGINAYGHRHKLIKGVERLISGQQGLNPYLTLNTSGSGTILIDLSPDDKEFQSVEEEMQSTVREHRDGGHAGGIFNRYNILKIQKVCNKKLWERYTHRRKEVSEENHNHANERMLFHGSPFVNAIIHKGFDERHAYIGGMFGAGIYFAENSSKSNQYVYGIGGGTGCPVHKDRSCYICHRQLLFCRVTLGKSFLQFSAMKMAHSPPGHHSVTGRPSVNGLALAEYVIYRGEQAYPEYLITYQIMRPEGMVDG
The assay is described as follows: biochemical. On the procedure: as §1

[1] abbreviates: NAD+ consumption assay, > less than 50% inhibition at highest concentration, >> no inhibition.
[2] abbreviates: read-out: TNKS2 IC50, NAD+ consumption assay, > less than 50% inhibition at highest concentration, >> no inhibition.

Structures are written as SMILES. Read-outs that look alike come from different tables or passages of the source.

T1 sequence (Q9UGN5 whole entry): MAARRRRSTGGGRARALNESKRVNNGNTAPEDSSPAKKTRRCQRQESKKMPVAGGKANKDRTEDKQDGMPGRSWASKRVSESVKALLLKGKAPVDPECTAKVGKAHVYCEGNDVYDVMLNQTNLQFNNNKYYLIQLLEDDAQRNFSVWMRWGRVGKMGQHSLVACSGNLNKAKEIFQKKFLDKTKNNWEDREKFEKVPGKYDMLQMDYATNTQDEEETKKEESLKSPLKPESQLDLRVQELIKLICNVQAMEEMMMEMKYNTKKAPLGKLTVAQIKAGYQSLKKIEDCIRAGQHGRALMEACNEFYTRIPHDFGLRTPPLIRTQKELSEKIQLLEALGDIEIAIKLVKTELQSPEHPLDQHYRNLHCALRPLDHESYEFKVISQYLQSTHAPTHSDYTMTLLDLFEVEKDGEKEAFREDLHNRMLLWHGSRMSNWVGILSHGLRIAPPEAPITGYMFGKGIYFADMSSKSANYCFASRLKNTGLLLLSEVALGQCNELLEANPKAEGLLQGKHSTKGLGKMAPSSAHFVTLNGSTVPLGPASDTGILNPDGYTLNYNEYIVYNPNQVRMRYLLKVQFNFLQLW

Usually IC50 stands for the midpoint of a concentration-inhibition curve. Turning to `CSc1nnc2sc3cc(C)ccc3n12` [Compound 21, 7-Methyl-3-(methylthio)[1,2,4]triazolo[3,4-b][1,3]benzothiazole], the IC50 is 12 µM on PARP2 (setting [1]) and more than 100 µM against TNKS2. For `COc1cccc2sc3nncn3c12` [Compound 15, 5-Methoxy[1,2,4]triazolo[3,4-b][1,3]benzothiazole], the IC50 on TNKS2 (setting [2]) was 1 µM. Turning to `Cc1ccc2c(c1)sc1nnc(NCc3ccc(Cl)cc3)n12` [Compound 24, N-(4-chlorobenzyl)-7-methyl[1,2,4]triazolo[3,4-b][1,3]benzothiazol-3-amine], the half-maximal inhibitory concentration (IC50) was 70 µM against PARP2 (setting [1]) and more than 100 µM at TNKS2. On to `COc1ccc(OC)c2c1sc1n[nH]c(=S)n12` [Compound 26, 5,8-Dimethoxy[1,2,4]triazolo[3,4-b][1,3]benzothiazole-3(2H)-thione], for which the IC50 amounted to 19 µM on PARP2 (setting [1]) and 66 µM at TNKS2 (setting [2]). Take `Cc1ccc2c(c1)sc1nnc(SCc3ccc(Cl)cc3)n12` [Compound 23, 3-[(4-Chlorobenzyl)thio]-7-methyl[1,2,4]triazolo[3,4-b][1,3]benzothiazole]: the IC50 against PARP2 and against TNKS2 was more than 100 µM throughout. In turn, `Cc1ccc2sc3nncn3c2c1` [Compound 5, 6-Methyl[1,2,4]triazolo[3,4-b][1,3]benzothiazole] returned an IC50 at PARP2 (setting [1]) of 1.5 µM. Also, the “TNKS2 pIC50 ± SEM” value on TNKS2 (experiment repeated three times) was “(6.02 ± 0.13)”. For the compound `Cc1ccc2c(c1)sc1nncn12` [Compound 1], the IC50 was found to be 4 µM against PARP2 (setting [1]) and 5.3 µM at TNKS2 (setting [2]). On to `Cc1ccc(F)c2c1sc1nncn12` [Compound 4, 5-Fluoro-8-methyl[1,2,4]triazolo[3,4-b][1,3]benzothiazole], for which the IC50 on TNKS2 (setting [2]) is 5.4 µM. As for `Cc1ccc2c(c1)sc1nnc(/N=C\c3ccc(Cl)cc3)n12` [Compound 25, N-[(1Z)-(4-chlorophenyl)methylene]-7-methyl[1,2,4]triazolo[3,4-b][1,3]benzothiazol-3-amine], the IC50 was 2.9 µM against PARP2 (setting [1]) and more than 100 µM against TNKS2. With `CC(C)c1ccc2c(c1)sc1nncn12` [Compound 8, 7-Isopropyl[1,2,4]triazolo[3,4-b][1,3]benzothiazole], the IC50 against PARP2 (setting [1]) was determined as 4.5 µM; on TNKS2 (setting [2]), 9.5 µM. Taken in the same sequence, the figures for `Cc1cccc2c1sc1nncn12` [Compound 6, 8-Methyl[1,2,4]triazolo[3,4-b][1,3]benzothiazole] were 8.3 µM and 3.8 µM. Regarding `COc1cccc2c1sc1nncn12` [Compound 14, 8-Methoxy[1,2,4]triazolo[3,4-b][1,3]benzothiazole], the results for the IC50 against PARP2 and at TNKS2 (setting [2]) were more than 10 µM and 24 µM, respectively.

`Cc1cc(C)c2c(c1)sc1nncn12` [Compound 2]: the IC50 is 1.3 µM against PARP2 (setting [1]) and 1.2 µM on TNKS2 (setting [2]). The compound `COc1ccc(OC)c2c1sc1nnc(NC(C)=O)n12` [Compound 31, N-(5,8-dimethoxy[1,2,4]triazolo[3,4-b][1,3]benzothiazol-3-yl)acetamide] registered a 50% inhibitory concentration (IC50) against PARP2 (setting [1]) of 97 µM.

`COc1ccc2sc3nncn3c2c1` [Compound 11, 6-Methoxy[1,2,4]triazolo[3,4-b][1,3]benzothiazole]: the IC50 at PARP2 (setting [1]) amounted to 4.7 µM; on TNKS2 (setting [2]), 1 µM.

Consider `Clc1ccc2c(c1)sc1nncn12` [Compound 9], for which the values for the IC50 at PARP2 (setting [1]) and on TNKS2 (setting [2]) were 2.4 µM and 10 µM, respectively. Regarding `c1ccc2c(c1)sc1nncn12` [Compound 3], the concentration for half-maximal inhibition (IC50) on PARP2 turned out to be 5.3 µM; on TNKS2 (setting [2]), 2.5 µM. On to `COc1cc(OC)c2sc3nncn3c2c1` [Compound 16, 6,8-Dimethoxy[1,2,4]triazolo[3,4-b][1,3]benzothiazole], for which the IC50 against PARP2 (setting [1]) came to 20 µM; on TNKS2 (setting [2]), 7.6 µM. The matching figures for `COc1ccc(OC)c2c1sc1nncn12` [Compound 13, 5,8-Dimethoxy[1,2,4]triazolo[3,4-b][1,3]benzothiazole]: 9.2 µM and 4 µM. On PARP2 (setting [1]), `COc1ccc(OC)c2c1sc1nnc(NC(=O)C(C)(C)C)n12` [Compound 30, N-(5,8-dimethoxy[1,2,4]triazolo[3,4-b][1,3]benzothiazol-3-yl)-2,2-dimethylpropanamide] displayed a half-maximal inhibitory concentration (IC50) of 53 µM.
